# Read-outs that look alike come from different tables or passages of the source.
# Assays:
# A. niger PagsA-lux = experiment: Effect on fungal growth; assay type: cell-based, Aspergillus niger
# Method: The effect of the peptides on fungal growth was assessed using Aspergillus niger. Peptides were incubated with 7.5×10^4 spores/ml of A. niger PagsA-lux in PBS without or with addition of pooled human plasma at a final concentration of 25%. As positive control, spores were treated with the antifungal caspofungin (Cancidas). Absorbance was measured over time and at 16 hours, fungal growth was visualized using light microscopy.
# [1] = test system: S. aureus JAR060131 biofilm formation; assay type: cell-based, Staphylococcus aureus
# Method: After solubilization with ethanol, the optical density at 590 nm is determined as a measure of biofilm mass.
# Peptides were incubated with 1×10^8 CFU/ml of S. aureus JAR060131 in biofilm-adjusted BM2 in 96-wells polypropylene plates as described in Antimicrob Agents Chemother 2012; 56: 2696-2704. After 24 hours incubation at 37° C., planktonic bacteria were removed by four washes with PBS and biofilms were stained with crystal violet. After solubilization with ethanol, the optical density at 590 nm was determined as a measure of biofilm mass.
# To assess the antibiofilm activity of the peptides in the presence of plasma, 96-wells polypropylene plates were coated with plasma by overnight incubation with 20% plasma at 4° C. Wells were washed once with sterile water and inoculated with S. aureus and peptides as described above.
# [2] = test system: UV-killed S. aureus JAR060131-induced IL-8 production; experiment: S. aureus neutralization in whole human blood; assay type: cell-based
# Method: (§1) Peptides were pre-incubated with 500 ng/ml LPS (E. coli 054) or 2 mg/ml LTA (S. aureus, endotoxin-free) or 1×10^9 CFU/ml of UV-killed S. aureus JAR060131 for 30 min at 37° C. Diluted whole human blood was stimulated with the peptide-LPS/LTA/S. aureus mixtures for 20 hours at 37° C. IL-12p40 and IL-8 levels in supernatants were determined using ELISA.
# [3] = test system: LPS (E. coli 054)-induced IL-12p40 production; experiment: LPS neutralization in whole human blood; assay type: cell-based
# Text: (§2) The term “anti-inflammatory activity” of a polypeptide as used herein refers to inhibiting, reducing or preventing an inflammatory response in a subject that has been infected by microbes, e.g. bacteria, viruses, fungi, and/or parasites. Anti-inflammatory activity of polypeptides of the invention is achieved by inhibiting, reducing or preventing the release of pro-inflammatory microbial compounds, such as lipoteichoic acid (LTA), peptidoglycan (PG) and/or lipopolysaccharides (LPS). Anti-inflammatory activity can be measured by methods known in the art. Examples of such method are a LPS neutralization assay and a LTA neutralization assay as described in the Examples of this application. In such method, a polypeptide of the invention is mixed with a fixed concentration of LPS or LTA, such as 500 ng/ml LPS or 2 mg/ml LTA, and incubated for 30 min. Thereafter, these mixtures were added to diluted fresh human whole blood and 20 hours thereafter the level of cytokines (e.g. 1L-8 for LTA and 1L-12p40 for LPS) in the blood sample are measured by ELISA.
# as §1
# S. aureus JAR060131 = assay type: cell-based, Staphylococcus aureus; conditions: approx. 1 × 10^6 CFU/ml S. aureus JAR, within 2 hrs (Table 2)
# Method: Polypeptides of the invention preferably have an in vitro IC99.9 of at most 150 μM after 2 hours at 37° C. against at least one microbial species in the presence of 50% plasma. Said IC99.9 is preferably determined in accordance with a method for determining the antimicrobial activity as described herein in the Examples. Said method described in the Examples for determining antimicrobial activity of microbes not associated with biofilm involves the mixing of 50 microL of a solution of a polypeptide in PBS with addition of human plasma at a final concentration of 50% and 20 microL of bacterial suspension with 5×10^6 CFU per mL of PBS in a well. After incubation of this mixture for 2 hours at 37° C. under shaking conditions, a sample is used for assessment of the bacterial counts. The lowest peptide concentration at which there is 99.9% of bacteria killed, is called the inhibitory concentration (IC) 99.9. Bacterial counts can be determined by manual CFU counting. For determining antibacterial activity for instance 1×10^6 CFU/ml bacteria are used, for determining antifungal activity for instance 1×10^5 cells/ml are used.
# (§3) Peptides were incubated with 1×10^6 CFU/ml of a mid-logarithmic culture of S. aureus JAR060131, methicillin resistant S. aureus (MRSA) LUH14616, Staphylococcus epidermidis RP62a, and Pseudomonas aeruginosa PAO1 in PBS without or with addition of pooled human plasma (Sanquin, Amsterdam, the Netherlands) at a final concentration of 50%. Antimicrobial activity is expressed as the 99.9% lethal concentration (LC99.9), i.e., the lowest peptide concentration which killed ≥99.9% of bacteria after 2 hours of incubation at 37° C. under shaking conditions.
# [4] = test system: LTA (S. aureus)-induced IL-8 production; experiment: LTA neutralization in whole human blood; assay type: cell-based
# Text: as §2, §1
# [5] = test system: Staphylococcus epidermidis RP62a; assay type: cell-based; conditions: 50% plasma
# Method: as §3
substance,measurement,setting,value
"Ac-LKRVWKRVFKLLKRYWRQLKKPVR-NH2 [Peptide P148, J LKRVWKRVFKLLKRYWRQLKKPVR B]",concentration inhibiting A. niger growth,"A. niger PagsA-lux; 25% plasma, light micrographs only, 16 hours (FIG. 2)",102.4 µM
same,fold higher antifungal activity as compared to OP-145,A. niger PagsA-lux; PBS,4 fold
same,concentration inhibiting A. niger growth (by >99.9%),"A. niger PagsA-lux; PBS, optical density (FIG. 1)",0.8 µM
same,IC50,"[1]; JAR060131 biofilm formation, 24 h",12800 nM
same,"concentration needed to inhibit biofilm formation for 50%, relative to OP-145 and P159",[1]; plasma-coated wells (FIG. 3B),two-fold higher concentration
same,fold higher concentration than OP-145 needed to inhibit S. aureus-induced IL-8 production for >50%,[2],8 fold
same,IC50,"[2]; UV-killed S. aureus JAR060131-induced IL-8, blood from one donor",1.56 µM
same,IC90,"[3]; LPS-induced IL-12p40, blood from two donors",0.25 nM
same,IC50,"[3]; diluted whole human blood, 20 hours",0.03 nM
same,IC99.9,S. aureus JAR060131; 50% plasma,12.8 µM
same,IC99.9,S. aureus JAR060131; PBS,1.6 µM
same,fold increased LTA-neutralizing ability versus OP-145,[4],4 fold
same,IC50,"[4]; LTA-induced IL-8, blood from one donor",0.195 µM
same,higher bactericidal activity as compared to OP-145,[5],43 fold
